One data set has as its target phosphodiesterase 1. Type of data set: biochemical, snake.
A further data set has as its system HCT-116 cells. Briefly: MTT cytotoxicity assay, colorectal cancer cell line HCT-116. Type of data set: cell-based. The conditions noted are these: for IC50: Homo sapiens, HCT-116, MTT, 48 h; for SI (selectivity index): IC50 normal (VERO-B) / IC50 cancer (HCT-116). The procedure:
(§1) The cytotoxic activity of the compounds was tested against different mammalian cancer cells, prostate carcinoma cells (PC-3), hepatocellular carcinoma (HepG2) and colon cancer cells (HCT-116). African green monkey kidney cells (Vero-B) were used as normal cells to study the selectivity towards the cancer cells. The cell lines were obtained from the American Type Culture Collection (ATCC). The cells were cultivated at 37 °C and 10% CO2 in DMEM (Lonza, Germany) medium supplemented with 10% fetal bovine serum (Lonza, Germany), 100 IU ml^−1 penicillin and 100 μg ml^−1 streptomycin (Lonza, Germany). […] The spirooxindole derivatives were solubilized in DMSO and stored at −20 °C. The viability of the cells was quantified using 3-(4,5-dimethylthiazol-2-yl)-2,5-diphenyl tetrazolium bromide (MTT), which measures the activity of mitochondrial succinate dehydrogenase in viable cells.[45,46]
(§2) The cells were seeded in 96-well plates at a concentration of 5 × 10^4 cells per ml (100 μl per well). […] DMSO was used as a negative control (0.1%). The cells were incubated for 48 h. After that, 15 μl of MTT (5 mg ml^−1 in PBS) was added to each well and incubated for another 4 h. The formazan crystals were solubilized by 100 μl of acidified SDS solution (10% SDS/0.01 N HCl in PBS). The absorbance was measured after 14 h of incubation at 37 °C and under 5% CO2 at 570 nm by using a BioTek microplate reader. Each experiment was repeated 3 times and a standard deviation was calculated (SD±). […] The growth of the cells was monitored and the images were acquired by Gx microscopes (GXMGXD202 Inverted Microscope) at 10× magnification.
Background: Formazan colour is commonly taken as a measure of viable cells.

A further data set deals with HepG2 cells. In words: MTT cytotoxicity assay, hepatocellular carcinoma HepG2. The data set is classed as cell-based. Particulars: for IC50: Homo sapiens, HepG2, MTT, 48 h; for SI (selectivity index): IC50 normal (VERO-B) / IC50 cancer (HepG2). On the procedure: as §1, §2
The next data set relates to PC-3 cells. In words: MTT cytotoxicity assay, prostate cancer cell line PC-3. Type of data set: cell-based. Particulars: for IC50: Homo sapiens, PC-3, MTT, 48 h; for SI (selectivity index): IC50 normal (VERO-B) / IC50 cancer (PC-3). On the procedure:
as §1, §2

The next data set relates to Vero-B cells. In words: MTT cytotoxicity assay, normal cells Vero-B. The data set is classed as cell-based, African green monkey. The conditions noted are these: Chlorocebus sabaeus, Vero B, 48 h. The procedure:
as §1, §2

The mark [1] stands for this setting: ± SD of 3 experiments, read-out: HCT-116 (IC50).
[2] abbreviates: read-out: HCT-116 (IC50, μg ml^−1).
Where [3] appears, read: ± SD of 3 experiments, read-out: HepG2 (IC50).
Setting [4] is: read-out: HepG2 (IC50, μg ml^−1).
Where [5] appears, read: ± SD of 3 experiments, read-out: PC-3 (IC50).
Where [6] appears, read: read-out: PC-3 (IC50, μg ml^−1).

“And” between values parts separate entries of the source, which are not always exact repeats. Equal entries are not always repeated. Where two headings read alike, the source gives them in different places. Bounds are passed on as bounds.

The record followed here is article PMC9079959, “Substituted spirooxindole derivatives as potent anticancer agents through inhibition of phosphodiesterase 1” (RSC Advances, 2018).

By IC50 is commonly meant the concentration that gives 50% inhibition. The melting point is the temperature, or range, at which the solid turns liquid.

Method for phosphodiesterase 1: A phosphodiesterase I inhibition assay was performed using snake venom according to a previously reported method with minute variations. Briefly, 33 mM Tris–HCl buffer of pH 8.8 (97 μl), 30 mM magnesium acetate with an enzyme concentration of 0.000742 U well^−1 and 0.33 mM bis-(p-nitrophenyl) phosphate (Sigma N-3002, 60 μl) as substrate were taken. […] After a pre-incubation period of 30 min, the enzyme with the test samples was observed spectrophotometrically for enzyme activity on a microtiter plate reader at 37 °C by following the rate of change in OD min^−1 at 410 nm of the p-nitrophenol released from p-nitrophenyl phosphate. All assays were processed in triplicate.[47]

For the compound `O=C(O)CN(CCN(CC(=O)O)CC(=O)O)CC(=O)O` [EDTA, reference compound], the half-maximal inhibitory concentration (IC50) on phosphodiesterase 1 (positive control) is 274 ± 0.007 µM.
Compound `COc1ccc(C2[C@@H](C(=O)c3c[nH]c4ccccc34)[C@]3(C(=O)Nc4ccccc43)N3CCC[C@@H]23)cc1` (stereo partly drawn) [4e, (2′R,3S,7a′S)-2′-(1H-Indole-3-carbonyl)-1′-(4-methoxyphenyl)-1′,2′,5′,6′,7′,7a′-hexahydrospiro[indoline-3,3′-pyrrolizin]-2-one] came in with a melting point of 122 to 124 °C. In addition, the half-maximal inhibitory concentration (IC50) with HCT-116 cells (setting [1]) came out at 26 ± 2 µM. The IC50 in the data set on HCT-116 cells (setting [2]) was found to be 12.4 µg/mL. Also, the “SI (selectivity index)” value with HCT-116 cells is recorded as 1. Also, in the data set with HepG2 cells (setting [3]), the IC50 was 17.3 ± 3 µM. The half-inhibitory concentration (IC50) in the data set with HepG2 cells (setting [4]) worked out at 8.3 µg/mL. The “SI (selectivity index)” value with HepG2 cells is listed as 1.5. In the data set with PC-3 cells (setting [5]), the IC50 worked out at 15.5 ± 2 µM. Further, the concentration for half-maximal inhibition (IC50) in the data set with PC-3 cells (setting [6]) was 7.4 µg/mL. The “SI (selectivity index)” value in the data set on PC-3 cells came to 1.7. The compound also came in with a 50% inhibitory concentration (IC50) with Vero-B cells of 26 µM.
`O=C(c1c[nH]c2ccccc12)[C@@H]1[C@@H](c2ccc(C(F)(F)F)cc2)[C@@H]2CCCN2[C@]12C(=O)Nc1ccccc12` [4k] had a melting point of 153 to 155 °C. Moreover, the IC50 with HCT-116 cells (setting [1]) came to 9 ± 0.5 µM. The IC50 in the data set on HCT-116 cells (setting [2]) worked out at 4.6 µg/mL. For the same compound, the “SI (selectivity index)” value with HCT-116 cells was found to be 2.4. Besides, in the data set with HepG2 cells (setting [3]), the IC50 turned out to be 10 ± 1.25 µM. The IC50 with HepG2 cells (setting [4]) turned out to be 5.2 µg/mL. Also, in the data set with HepG2 cells, the “SI (selectivity index)” value is 2.2. Also, the IC50 with PC-3 cells (setting [5]) is 9 ± 0.2 µM. In addition, the IC50 in the data set with PC-3 cells (setting [6]) is 4.6 µg/mL. This compound yielded an IC50 in the data set with Vero-B cells of 22 µM.
In turn, `O=C(c1c[nH]c2ccccc12)[C@@H]1C(c2ccc(F)cc2)[C@@H]2CCCN2[C@@]12C(=O)Nc1ccccc12` (stereo partly drawn) [4g, (2′R,3S,7a′S)-1′-(4-Fluorophenyl)-2′-(1H-indole-3-carbonyl)-1′,2′,5′,6′,7′,7a′-hexahydrospiro[indoline-3,3′-pyrrolizin]-2-one] registered a melting point of 144 to 146 °C. Moreover, the IC50 with HCT-116 cells (setting [1]) is 16 ± 1 µM. Also, the IC50 with HCT-116 cells (setting [2]) stood at 7.4 µg/mL. Moreover, the “SI (selectivity index)” value in the data set with HCT-116 cells stood at 2.5. Further, the concentration for half-maximal inhibition (IC50) in the data set on HepG2 cells (setting [3]) came to 20 ± 2 µM. For the same compound, in the data set with HepG2 cells (setting [4]), the IC50 is 9.3 µg/mL. Further, the “SI (selectivity index)” value in the data set on HepG2 cells turned out to be 2. For the same compound, the IC50 in the data set with PC-3 cells (setting [5]) stood at 16.3 ± 30 µM. The half-maximal inhibitory concentration (IC50) in the data set on PC-3 cells (setting [6]) was found to be 7.6 µg/mL. For the same compound, the “SI (selectivity index)” value with PC-3 cells turned out to be 2.5. The same compound returned an IC50 in the data set on Vero-B cells of 40 µM.
Compound `O=C(c1c[nH]c2ccccc12)[C@@H]1C(c2ccc(Cl)cc2Cl)[C@@H]2CCCN2[C@@]12C(=O)Nc1ccccc12` (stereo partly drawn) [4d, (2′R,3S,7a′S)-1′-(2,4-Dichlorophenyl)-2′-(1H-indole-3-carbonyl)-1′,2′,5′,6′,7′,7a′-hexahydrospiro[indoline-3,3′-pyrrolizin]-2-one] registered a melting point of 149 to 151 °C. For the same compound, the half-maximal inhibitory concentration (IC50) with HCT-116 cells (setting [1]) was 9 ± 0.6 µM. Further, in the data set with HCT-116 cells (setting [2]), the 50% inhibitory concentration (IC50) was found to be 4.6 µg/mL. The “SI (selectivity index)” value in the data set with HCT-116 cells is > 1 and 1. For the same compound, the 50% inhibitory concentration (IC50) in the data set on HepG2 cells (setting [3]) amounted to 2 ± 0.1 µM. In the data set with HepG2 cells (setting [4]), the IC50 came out at 1 µg/mL. Moreover, the IC50 in the data set on PC-3 cells (setting [5]) is 2 ± 0.125 µM. Further, in the data set with PC-3 cells (setting [6]), the IC50 is 1 µg/mL. In addition, in the data set with Vero-B cells, inhibition was half-maximal at 9 µM (IC50). The “inhibitory activity against phosphodiesterase enzyme” value with phosphodiesterase 1 (at 2 μM) is recorded as 74.2%.
